From patent US7786287B2, “Hepatitis C virus assay systems” (priority 2002, dated 2010)

Target: T1, beta-lactamase (Escherichia coli, UniProt P62593, A182V/V82I)
T1 construct: HCV core N-terminal partial region (first 12 codons, about 36 nucleotides of core), then a 3-residue linker (Gly-Arg-Ala) and an added Met before His24 of the enzyme; expressed in transfected cells; host or cells: replicon-enhanced Huh-7 cells transfected with HCV replicon RNA encoding beta-lactamase
Assay: HCV replicon beta-lactamase assay: signal-to-background with clavulanic acid
Type: cell-based
Settings: for Δ: 1.23 at 0.00 μM, Δ not defined; for S/B: 3.5 at 0.00 μM
Method: Clavulanic acid can be used to enhance the signal-to-background ratio from the beta-lactamase reporter system wherein, a larger signal to noise ratio facilitates detection of HCV replication inhibitors by better reflecting changes in the intracellular concentration of beta-lactamase.
Prior to use, frozen cells are thawed fresh in the morning of the assay or the day before and diluted in pre-warmed media to 40,000 cells/ml. Cell suspension (50 μl) is plated into 384-well micro-titer plates. The cells are allowed to recover for at least 6 hours at 37° C. in the plates before beginning an assay. 1 μl of 25 μM clavulanic acid in PBS and 0.25 μl of 500 μM test compounds in DMSO are added to the cells. The assay cell plates are then incubated for 24 hours at 37° C. To the assay plate, 10 μl of 6×CCF4/AM substrate in loading buffer is added with a Multidrop (Labsystems), and the plate incubated for 90 minutes at ambient temperature. The plate is then read from the bottom on a Teacn Spectrafluor Plus (340 nm excitation, 460 nm and 530 nm emissions).
In the example described below, clavulanic acid is present throughout the assay at a concentration that slightly reduces beta-lactamase activity instead of using it at high concentration that would complete inhibit beta-lactamase activity.
Table 2 provides results obtained using different concentrations of clavulanic acid and an HCV NS5B inhibitor.

## O=C(O)[C@H]1/C(=C/CO)O[C@@H]2CC(=O)N21 [clavulanic acid]
[CA] 0.13 μM
  Δ: 1.22
  S/B: 5.7
[CA] 0.25 μM
  Δ: 1.17
  S/B: 6.0
[CA] 0.50 μM
  Δ: 0.97
  S/B: 6.3
[CA] 1.00 μM
  Δ: 0.81
  S/B: 5.4
